The results in this text go back to patent EP1083874B1, “Use of a compound for the preparation of a medicament for treating alopecia or promoting hair growth in an animal” (GPI NIL Holdings, Inc., priority 1998, dated 1999).

In the experiment the target is FKBP12 (Homo sapiens, UniProt P62942). Briefly: Ki test procedure: inhibition of peptidyl-prolyl isomerase (rotamase) activity, chymotrypsin-coupled assay. It is filed as biochemical. Particulars: apparent Ki. From the text: The inhibition of the prolyl peptidyl cis-trans isomerase activity of FKBP may be measured as an indicator of this affinity.
FKBP12, sequence (P62942 whole entry, species assumed): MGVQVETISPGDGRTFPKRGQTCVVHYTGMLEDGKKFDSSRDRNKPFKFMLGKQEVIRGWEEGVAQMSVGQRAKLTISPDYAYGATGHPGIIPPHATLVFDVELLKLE
Inhibition of the peptidyl-prolyl isomerase (rotamase) activity of the compounds used in the pharmaceutical compositions can be evaluated by known methods described in the literature (Harding et al., Nature, 1989, 341:758-760; Holt et al. J. Am. Chem. Soc., 115:9923-9938).
The cis-trans isomerization of an alanine-proline bond in a model substrate, N-succinyl-Ala-Ala-Pro-Phe-p-nitroanilide, is monitored spectrophotometrically in a chymotrypsin-coupled assay, which releases para-nitroanilide from the trans form of the substrate. The inhibition of this reaction caused by the addition of different concentrations of inhibitor is determined, and the data is analyzed as a change in first-order rate constant as a function of inhibitor concentration to yield the apparent Ki values.
In a plastic cuvette are added […] of ice cold assay buffer (25 mM HEPES, pH 7.8, 100 mM NaCl), 10 mL of FKBP (2.5 mM in 10 mM Tris-Cl pH 7.5, 100 mM NaCl, 1 mM dithiothreitol), 25 mL of chymotrypsin (50 mg/ml in 1 mM HCl) and […] of test compound at various concentrations in dimethyl sulfoxide. The reaction is initiated by the addition of 5 mL of substrate (succinyl-Ala-Phe-Pro-Phe-para-nitroanilide, 5 mg/mL in 2.35 mM LiCl in trifluoroethanol).
The absorbance at 390 nm versus time is monitored for 90 seconds using a spectrophotometer and the rate constants are determined from the absorbance versus time data files.
On to `O=C(C(=O)N1CCCC[C@H]1C(=O)OCCCCC1CCCCC1)c1ccccc1` [Compound 15], for which the Ki was 400 nM.
`O=C(C(=O)N1CCCC[C@H]1C(=O)OCCCCc1ccccc1)c1ccccc1` [Compound 13]: the Ki is 350 nM.
As for `O=C(C(=O)N1CCCC[C@H]1C(=O)OCc1ccccc1)c1ccco1` [Compound 20], the Ki amounted to 3000 nM.
Consider `COc1ccc(CCCCOC(=O)[C@@H]2CCCCN2C(=O)C(=O)c2cc(OC)c(OC)c(OC)c2)cc1` [Compound 25], for which the Ki is 13 nM.
In the case of `COC(=O)C(=O)N1CCCC[C@H]1C(=O)OCCCC1CCCCC1` [Compound 18] it was 20000 nM; in that of `COC(=O)C(=O)N1CCCC[C@H]1C(=O)OCCCC1CCCC1` [Compound 19], 35000 nM.
With `O=C(C(=O)N1CCCC[C@H]1C(=O)OCc1ccccc1)c1ccccc1` [Compound 10] the figure was 1500 nM.
Regarding `O=C(C(=O)N1CCCC[C@H]1C(=O)OCCc1ccccc1)c1ccccc1` [Compound 14], the Ki was determined as 1100 nM.
With `COC(=O)C(=O)N1CCCC[C@H]1C(=O)OCc1ccccc1` [Compound 16], the Ki turned out to be 80000 nM.
As for `COc1cc(C(=O)C(=O)N2CCCC[C@H]2C(=O)OCCCCc2ccccc2)cc(OC)c1OC` [Compound 23], the Ki was 19 nM.
